In patent US10561318B2, “Device, system and method for quantifying fluorescence and optical properties” (University Health Network, priority 2010, dated 2020):

Set-up: species or system patients
Description: Another example study is now described. In this example study, 14 patients with a variety of intracranial pathologies (including low- and high-grade gliomas, meningioma, and intracranial lung metastases, as indicated in FIG. 17) were administered 20-mg/kg of ALA 3 hours prior to induction of anesthesia. The neurosurgeon performed a conventional standard craniotomy procedure with image-guidance using a surgical microscope modified for PpIX fluorescence. At the surgical bed, the surgeon acquired multiple sets of measurements using an example probe, with corresponding tissue specimens collected and processed for histopathological analysis. […] In addition, the surgeon scored the visible fluorescence as viewed through the fluorescence-capable surgical microscope (scores from 0-4). All specimens were assessed as either normal or abnormal, such that presence of tumor cells was assessed as abnormal.
Receiver-Operator Characteristic Analysis: The receiver-operator characteristic (ROC) curves were generated using the PpIX concentrations as the parameter comparing normal tissue to these tumor populations: all tumors, all gliomas, low-grade gliomas (LGGs), high-grade gliomas (HGGs), meningiomas and metastases. […] The uncorrected fluorescence metric was the magnitude of the PpIX fluorescence peak from the raw fluorescence spectrum, i.e. Fx,m at 635 nm (see Eqs. 1 and 4). […]

C=CC1=C(C)c2cc3[nH]c(cc4nc(cc5[nH]c(cc1n2)c(C)c5CCC(=O)O)C(CCC(=O)O)=C4C)c(C)c3C=C [PpIX, protoporphyrin IX]
tumor-to-normal (T/N) ratio of in vivo PpIX concentration (human): 200
PpIX in abnormal tissue compared to normal tissue (in vivo): approximately at least five times more PpIX
